Measurements as given in patent publication US7244763B2, “Compounds that modulate PPAR activity and methods of preparation” (Warner Lambert Company LLC, priority 2003, dated 2007).
pEC50, pIC50: −log10 of the molar value. Values belong to the compound of their own block, whether it stands above or below them.

What was measured:
hPPARβ = biological target: T1, hPPARβ (Homo sapiens, UniProt Q03181); experiment: Test A transient transfection assay, HepG2 cells, Gal4-PPAR chimeric receptor luciferase reporter (Hep G2-hBeta); type: cell-based; conditions: HepG2 cells transfected with hPPARβ chimeric receptor, 24 hours, read-out: EC50β (Hep G2-hBeta EC50)
T1 construct: expression plasmids encoding hPPARα, hPPARβ or mPPARγ chimeric receptors
T1 sequence (Q03181 171-441 limits assumed): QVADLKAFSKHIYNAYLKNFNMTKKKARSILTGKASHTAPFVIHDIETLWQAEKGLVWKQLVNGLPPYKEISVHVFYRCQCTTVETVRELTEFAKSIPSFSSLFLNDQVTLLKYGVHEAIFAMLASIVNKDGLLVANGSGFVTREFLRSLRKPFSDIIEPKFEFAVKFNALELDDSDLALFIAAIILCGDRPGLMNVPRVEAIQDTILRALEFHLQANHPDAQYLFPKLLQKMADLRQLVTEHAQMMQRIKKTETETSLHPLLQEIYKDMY
Procedure: (§1) 1. Test A. Transient Transfections Assay Using the HepG2 Hepatoma Cell Line.
(§2) HepG2 cells were transiently transfected with an expression plasmids encoding hPPARα, hPPARβ or mPPARγ chimeric receptors and a reporter containing the yeast upstream activating sequence (UAS) upstream of the viral E1B promoter controlling a luciferase reporter gene. In addition, the plasmid pRSVβ-gal was used to control for transfection efficiency. HepG2 cells were grown in DMEM supplemented with 10% FBS and 1 μM non-essential amino acid. On the first day, cells were split into 100 mm dishes at 2.5×10^6/dish and incubated overnight at 37C.°/5% CO2. On the second day the cells were transiently transfected with plasmid DNA encoding a chimeric receptor, the luciferase reporter gene; and β-gal. For each 100 mm dish, 15 μg of luciferase reporter (PG5E1b) DNA, 15 μg of Gal4-PPAR chimeric receptor DNA, and 1.5 μg of β-gal plasmid DNA were mixed with 1.4 ml of opti-MEM in the tube. 281 μl of LipoFectamine-2000 reagent was added to 1.4 ml of opti-MEM in the tube, and incubate for 5 min at RT. The diluted Lipofectamine-2000 reagent was combined with the DNA mixture, and incubate for 20 min at RT. After fresh medium was added to each 100 mm dish of cells, 2.8 ml of Lipofectamine2000-DNA mixture was added dropwise to the 100 mm dish containing 14 ml of medium, and incubate 37° C. overnight. […]

human PPARβ LBD = biological target: T2, human PPARβ LBD (Homo sapiens, UniProt Q03181); experiment: Test B radioligand competition binding assay (SPA), PPARβ LBD-GST fusion protein; conditions: concentration that inhibits 50% of interaction between PPARβ LBD and tritiated ligand
T2 construct: made in house; host or cells: E. coli BL21(DE3)pLysS
T2 sequence (Q03181 211-439 limits assumed): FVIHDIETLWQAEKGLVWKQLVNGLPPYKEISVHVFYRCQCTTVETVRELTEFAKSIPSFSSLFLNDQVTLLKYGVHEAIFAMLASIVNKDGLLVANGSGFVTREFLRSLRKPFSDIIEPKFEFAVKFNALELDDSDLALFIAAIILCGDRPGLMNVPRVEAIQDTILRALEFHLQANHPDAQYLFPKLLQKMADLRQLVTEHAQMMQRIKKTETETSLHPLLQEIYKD
Source text: 2. Test B. Radioligand Binding Assay
The ability of a compound to interact with PPARβ can be determined using a competition-based receptor binding assay that employs a radiolabeled PPARβ ligand together with a fragment of the PPARβ receptor containing the ligand binding domain (LBD) fused to the protein glutathione-S-transferase (GST). • [1] Preparation of PPARβ LBD-GST fusion protein. The ligand binding domain of the human PPARβ LBD-GST fusion protein can be expressed in E. coli and purified as outlined below. DNA encoding the LBD of human PPARβ is amplified via PCR and inserted in-frame into the bacterial expression vector pGEX-2t PPARβ LBD-GST fusion proteins are expressed in BL21(DE3)pLysS cells. After a 1–2 hr incubation with up to 1 mM IPTG, the cells are lysed by freeze-thaw in buffer containing 50 mM Tris (pH=8), 250 mM KCl, 10 mM DTT, 1 mM PMSF, and 1% triton X-100. After room temperature DNAse and RNAse treatment for 15 min and centrifugation for 1 hr at 50,000×g, 1.5 ml of a glutathione-Sepharose 4B slurry in PBS is added to the resulting supernatant and the mixture is incubated at room temperature for 30 min. […] After incubation with shaking at room temperature for 30 minutes, radioactivity bound to the PPARβ LBD-GST fusion protein/anti-GST/SPA antibody-binding bead complex is assessed using a Wallac MicroBeta plate reader. […]

PPARαLBD = biological target: T3, PPARαLBD (Homo sapiens, UniProt Q07869); experiment: Test B radioligand competition binding assay, similar procedure with PPARα LBD; conditions: competition binding to PPARα LBD
T3 construct: GST (inferred from 'similar procedure')
T3 sequence (Q07869 239-466 limits assumed): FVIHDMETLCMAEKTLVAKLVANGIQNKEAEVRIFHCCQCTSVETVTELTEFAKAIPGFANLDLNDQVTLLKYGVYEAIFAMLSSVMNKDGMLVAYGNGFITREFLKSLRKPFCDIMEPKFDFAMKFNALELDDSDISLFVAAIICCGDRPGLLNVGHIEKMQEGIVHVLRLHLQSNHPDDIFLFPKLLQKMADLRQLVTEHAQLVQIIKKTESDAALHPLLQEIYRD

hPPARα = biological target: T4, hPPARα (Homo sapiens, UniProt Q07869); experiment: Test A transient transfection assay, HepG2 cells, Gal4-PPAR chimeric receptor luciferase reporter (Hep G2-hAlpha); type: cell-based; conditions: HepG2 cells transfected with hPPARα chimeric receptor, 24 hours, read-out: EC50α (Hep G2-hAlpha EC50)
T4 construct: expression plasmids encoding hPPARα, hPPARβ or mPPARγ chimeric receptors
T4 sequence (Q07869 200-468 limits assumed): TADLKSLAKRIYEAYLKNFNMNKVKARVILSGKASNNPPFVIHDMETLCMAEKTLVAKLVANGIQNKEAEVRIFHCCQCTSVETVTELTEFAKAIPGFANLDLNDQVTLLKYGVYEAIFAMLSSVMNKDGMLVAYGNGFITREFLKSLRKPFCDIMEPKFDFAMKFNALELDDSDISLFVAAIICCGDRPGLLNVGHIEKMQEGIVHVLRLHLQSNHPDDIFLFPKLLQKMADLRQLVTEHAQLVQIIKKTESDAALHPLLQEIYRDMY
Procedure: as §1, §2

pEC50 (hPPARβ): 5.18
SMILES: O=C(O)CC1CCc2cc(SCc3ccc(-c4ccc(C(F)(F)F)cn4)cc3)ccc2O1 (centres unmarked) [Compound 10, {6-[4-(5-Trifluoromethyl-pyridin-2-yl)-benzylsulfanyl]-chroman-2-yl}-acetic acid]

pEC50 (hPPARβ): 6.52
pIC50 (human PPARβ LBD): 6.35
SMILES: COc1cc(C(C)(C)C(=O)O)ccc1SCc1ccc(-c2ccc(C(F)(F)F)cn2)cc1 [Compound 21, 2-{3-Methoxy-4-[4-(5-trifluoromethyl-pyridin-2-yl)-benzylsulfanyl]-phenyl}-2-methyl-propionic acid]

melting point: 169 to 170 °C
SMILES: O=C(O)COc1ccc(SCc2ccc(OC3CCc4cc(Cl)ccc43)cc2)c2c1CCC2 (centres unmarked) [Compound 23, {7-[4-(5-Chloro-indan-1-yloxy)-benzylsulfanyl]-indan-4-yloxy}-acetic acid]

melting point: 193 to 194 °C
SMILES: O=C(O)Cc1coc2cc(OCc3cc(-c4ccc(Cl)cc4)on3)ccc12 [Compound 24, {6-[5-(4-Chloro-phenyl)-isoxazol-3-ylmethoxy]-benzofuran-3-yl}-acetic acid]

melting point: 161 to 163 °C
SMILES: O=C(O)Cc1coc2cc(OCc3ccc(OCc4ccc(C(F)(F)F)cc4)cc3)ccc12 [Compound 25, {6-[4-(4-Trifluoromethyl-benzyloxy)-benzyloxy]-benzofuran-3-yl}-acetic acid]

pIC50 (PPARαLBD): 5.45
SMILES: Cc1cc(SCCCc2ccc3ccccc3c2)ccc1OCC(=O)O [Compound 27, [2-Methyl-4-(3-naphthalen-2-yl-propylsulfanyl)-phenoxy]-acetic acid]

pIC50 (human PPARβ LBD): 8.17
SMILES: Cc1cc(SCCCCOc2ccc(Cl)cc2Cl)ccc1OCC(=O)O [Compound 31, {4-[4-(2,4-Dichloro-phenoxy)-butylsulfanyl]-2-methyl-phenoxy}-acetic acid]

pEC50 (hPPARα): 5.71
SMILES: O=C(O)C1(c2ccc(SCc3ccc(-c4ccc(C(F)(F)F)cc4)cc3)cc2)CC1 [Compound 36, 1-[4-(4′-Trifluoromethyl-biphenyl-4-ylmethylsulfanyl)-phenyl]-cyclopropanecarboxylic acid]

melting point: 229 to 230 °C (dec.)
SMILES: O=C(O)Cc1csc2c(OCc3cc(-c4ccc(Cl)cc4)on3)cccc12 [Compound 77, {7-[5-(4-Chloro-phenyl)-isoxazol-3-ylmethoxy]-benzo[b]thiophen-3-yl}-acetic acid]

melting point: 157 to 158 °C
SMILES: Cc1cc2c(CC(=O)O)csc2cc1OCc1ccccc1OCc1ccc(C(F)(F)F)cc1 [Compound 78, {5-Methyl-6-[2-(4-trifluoromethyl-benzyloxy)-benzyloxy]-benzo[b]-thiophen-3-yl}-acetic acid]
